Data: US20260053747A1, “RECONSTITUTED HIGH-DENSITY LIPOPROTEIN NANOPARTICLES COMPRISING CHOLESTEROL” (MEPSGEN CO., LTD., priority 2023, published 2026)

Experiments:
hBMECs = experiment: Toxicity (cell survival rate) in hBMECs; format: cell-based, human; settings: up to 5 μg/mL, 8 hours
Procedure: (§1) The toxicity of 24HC-containing rHDL nanoparticles toward hBMECs, iBMECs, pericytes, and normal brain astrocytes, which constitute the BBB until the nanoparticles penetrate the BBB and reach the GBM, was evaluated. hBMECs, iBMECs, pericytes, and astrocytes were seeded into a 96-well cell culture plate. Pericytes were cultured in PM medium, astrocytes were cultured in the same culture medium as described in Example 1, and hBMEC and iBMEC cells were cultured in the same culture medium as described in Example 6. After 24 hours of incubation, the cells were treated with the nanoparticles according to the present invention at concentrations ranging from Oto 5 μg/mL, and the cell survival rate (%) was evaluated after 8 hours of incubation. […] In addition, it was confirmed that the nanoparticles are not toxic to normal brain cells other than GBM.

iBMECs = experiment: Toxicity (cell survival rate) in iBMECs; format: cell-based, human; settings: up to 5 μg/mL, 8 hours
Procedure: as §1

pericytes = experiment: Toxicity (cell survival rate) in pericytes; format: cell-based; settings: up to 5 μg/mL, 8 hours
Procedure: as §1

normal brain astrocytes = experiment: Toxicity (cell survival rate) in astrocytes; format: cell-based; settings: up to 5 μg/mL, 8 hours
Procedure: as §1

[1] = tested on: LDLR mRNA expression in U87MG cells; experiment: qPCR of LDLR mRNA in U87MG; format: cell-based; settings: 1 μg/mL of 24HC, 24 hours
Source text: (§2) 24HC is an endogenous LXR agonist and is known to induce the expression of genes responsible for cholesterol efflux, such as ABCA1 and ABCG1, thereby inducing intracellular cholesterol efflux, and to inhibit exogenous cholesterol uptake by downregulating LDLR. Accordingly, we anticipated that treatment of GBM with 24HC-containing rHDL nanoparticles would result in a greater decrease in LDLR expression and an increase in ABCA1 expression due to the action of 24HC, compared to the treatment with 24HC alone. Therefore, U87MG and LN229 cells were treated with 24HC, 24HC-containing rHDL nanoparticles, and rHDL nanoparticles, and the changes in LDLR and ABCA1 mRNA expression were confirmed using qPCR (real-time polymerase chain reaction). U87MG and LN229 cells were seeded at 0.5×10^5 cells/well in a 6-well cell culture plate and cultured for 24 hours under the conditions described in Example 1 above. In qPCR experiments, U87MG cells were treated with 1 μg/mL of 24HC for 24 hours, and LN229 cells were treated with 5 μg/mL of 24HC for 24 hours, and changes in LDLR mRNA were confirmed. […] In the case of rHDL nanoparticles, the amount of apolipoprotein E3 in the 24HC-containing rHDL nanoparticles was quantified using a BCA assay, and the same amount of apolipoprotein E3 corresponding to the 24HC treatment concentration was calculated prior to treatment with rHDL nanoparticles.

[2] = tested on: LDLR mRNA expression in LN229 cells; experiment: qPCR of LDLR mRNA in LN229; format: cell-based; settings: LN229, 5 μg/mL of 24HC, 24 hours
Source text: as §2

[3] = tested on: ABCA1 mRNA expression in U87MG cells; experiment: qPCR of ABCA1 mRNA in U87MG; format: cell-based; settings: 1 μg/mL of 24HC, 4 hours
Source text: as §2

[4] = tested on: ABCA1 mRNA expression in LN229 cells; experiment: qPCR of ABCA1 mRNA in LN229; format: cell-based; settings: LN229, 5 μg/mL of 24HC, 4 hours
Source text: as §2

U87MG cells = experiment: GBM cell survival rate in U87MG; format: cell-based; settings: Homo sapiens, U-87 MG, 0-50 μg/mL, 48 hours
Procedure: (§3) In order to determine whether cholesterol depletion caused by intracellular cholesterol efflux inhibits GBM cell proliferation and induces cell death, U87MG and LN229 cells were treated with rHDL nanoparticles, 24HC, and 24HC-containing rHDL nanoparticles, and the cell survival rate was evaluated. After 24 hours of incubation, the cells were treated with the nanoparticles according to the present invention at concentrations of 0-50 μg/mL, and the cell survival rate (%) was evaluated after 48 hours of incubation.

LN229 cells = experiment: GBM cell survival rate in LN229; format: cell-based; settings: Homo sapiens, LN-229, 0-50 μg/mL, 48 hours
Procedure: as §3

[5] = tested on: LDLR mRNA expression in GBM #P1 and GBM #P2 cells; experiment: qPCR of LDLR mRNA in patient-derived GBM cells; format: cell-based; settings: GBM #P1 and GBM #P2, 2 μg/mL of 24HC, 4 hours
Procedure: GBM #P1 and GBM #P2 cells were treated with 24HC, 24HC-containing rHDL nanoparticles, and rHDL nanoparticles, and the changes in LDLR and ABCA1 mRNA expression were confirmed using qPCR. GBM #P1 and GBM #P2 cells were seeded at 0.5×10^5 cells/well in a 6-well cell culture plate and were cultured for 24 hours. The cells were cultured under the conditions as described in Example 12 above. GBM #P1 and GBM #P2 cells were treated with 24HC and 24HC-containing rHDL nanoparticles at a concentration of 2 μg/mL of 24HC for 4 hours. In the case of rHDL nanoparticles, the amount of apolipoprotein E3 in the 24HC-containing rHDL nanoparticles was quantified using a BCA assay, and then the same amount of apolipoprotein E3 corresponding to the 24HC treatment concentration was calculated prior to treatment with rHDL nanoparticles.

GBM #P1 cells = experiment: Cell viability in patient-derived GBM #P1; format: cell-based; settings: 0-50 μg/mL, 48 hours
Procedure: (§4) In order to determine whether cholesterol depletion due to intracellular cholesterol efflux inhibits GBM cell proliferation and induces cell death, GBM #P1 and GBM #P2 cells were treated with rHDL nanoparticles, 24HC, and 24HC-containing rHDL nanoparticles, and cell viability was evaluated. After 24 hours of incubation, the cells were treated with 0-50 μg/mL of the nanoparticles, and the cell viability (%) was assessed after 48 hours of incubation.

GBM #P2 cells = experiment: Cell viability in patient-derived GBM #P2; format: cell-based; settings: 0-50 μg/mL, 48 hours
Procedure: as §4

[6] = tested on: ABCA1 protein in PDAC cells; settings: PDAC cells (Raimund O, Life Sci Alliance, 2022); cited from earlier work

SMILES	Toxicity in hBMECs (hBMECs)	Toxicity in iBMECs (iBMECs)	Toxicity in pericytes (pericytes)	Toxicity in astrocytes (normal brain astrocytes)	Level of LDLR mRNA expression compared to the control group [1]	Level of LDLR mRNA expression compared to the control group [2]	Level of ABCA1 mRNA expression compared to the control group [3]	Level of ABCA1 mRNA expression compared to the control group [4]	IC50 (U87MG cells)	IC50 (LN229 cells)	Level of LDLR mRNA expression, lower compared to the control group [5]	IC50 (GBM #P1 cells)	IC50 (GBM #P2 cells)	Expression of the ABCA1 protein [6]
CC(C)C(O)CC[C@@H](C)[C@H]1CC[C@H]2[C@@H]3CC=C4C[C@@H](O)CC[C@]4(C)[C@H]3CC[C@]12C (some centres unmarked) [Formulation 24HC, 24-hydroxycholesterol]	none of the rHDL nanoparticles, 24HC, or 24HC-containing rHDL nanoparticles exhibited toxicity	none of the rHDL nanoparticles, 24HC, or 24HC-containing rHDL nanoparticles exhibited toxicity	none of the rHDL nanoparticles, 24HC, or 24HC-containing rHDL nanoparticles exhibited toxicity	none of the rHDL nanoparticles, 24HC, or 24HC-containing rHDL nanoparticles exhibited toxicity	decreased	decreased	increased	increased	6.7 µg/mL	12.8 µg/mL	significantly reduced	40.2 µg/mL	13.8 µg/mL	
O=S(=O)(c1ccccc1)N(CC(F)(F)F)c1ccc(C(O)(C(F)(F)F)C(F)(F)F)cc1 [Formulation T0901317]														increased the expression of the ABCA1 protein
